“Also recorded” adds a separate entry of the source. Peptide text beside a SMILES is read from it.
Experiments:
FGF14:Nav1.6 complex = target: T1, FGF14:Nav1.6 complex (Homo sapiens, UniProt Q92915); test: Split-luciferase complementation assay (LCA), CLuc-FGF14 wild type; type: cell-based; conditions: for effect on FGF14:Nav1.6 complex formation: 50 µM, 12 hr, HEK293, % maximal luminescence vs DMSO, n = 6–10 independent experiments, FLPK, EYYV p < .01, PLEV p < .001
T1 construct: expressed in transfected cells; host or cells: HEK293, transient transfection
T1 sequence (Q92915 1-252 isoform Q92915-2): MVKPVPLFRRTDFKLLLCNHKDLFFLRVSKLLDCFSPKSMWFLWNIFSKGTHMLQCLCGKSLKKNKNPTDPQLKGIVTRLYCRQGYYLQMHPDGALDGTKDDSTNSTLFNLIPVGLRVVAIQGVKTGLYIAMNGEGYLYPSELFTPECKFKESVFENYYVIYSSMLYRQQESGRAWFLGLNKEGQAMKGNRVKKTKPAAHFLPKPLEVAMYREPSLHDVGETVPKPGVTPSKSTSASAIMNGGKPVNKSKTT
From the text: Plasmids used in this study derived from the following clones: human FGF14‐1b isoform (accession number: NM_175929.2) and human Nav1.6 (accession number: NM_014191.3). The CLuc‐FGF14, CD4‐Nav1.6‐NLuc, constructs and the pcDNA3.1 vector (Invitrogen, Carlsbad, CA) were engineered and characterized as previously described (Goetz et al., 2009; Shavkunov et al., 2012,2013,2015; Ali et al., 2016, 2018; Wadsworth et al., 2019). The plasmid pGL3 expressing full length Firefly (Photinus pyralis) luciferase was a gift from Dr. P. Sarkar (Department of Neurology, UTMB). For protein purification studies, cDNAs encoding FGF14‐1b (accession number NP_787125; aa 64–252) or the C‐terminal tail of Nav1.6 (accession number #NP_001171455; aa 1756–1939) were subcloned into suitable pET bacterial expression vectors (pET28a‐FGF14; pET30a‐Nav1.6) with a 6X His‐tag at the N‐terminal site; these plasmids were a gift of Dr. Moosa Mohammadi (NYU, Langone Medical Center). The mutation coding for FGF14^V160A was generated by site‐directed mutagenesis and PCR using FGF14‐1b as a template described previously (Ali et al., 2016). For electrophysiological studies FGF14‐GFP (human) and FGF14‐ΔNT‐GFP (human) were cloned into the GFP plasmid (pQBI‐fC2; Quantum Biotechnology Inc., Montreal, Canada) as previously described.
HEK293 cells were maintained in DMEM and F‐12 (Invitrogen, Carlsbad, CA), supplemented with 0.05% glucose, 0.5 mM pyruvate, 10% fetal bovine serum, 100 units/ml penicillin, and 100 µg/ml streptomycin (Invitrogen), and incubated at 37 °C with 5% CO2. HEK293 cells stably expressing the human Nav1.6 channel (hereafter referred to as HEK‐Nav1.6 cells) were maintained similarly except for the addition of 500 μg/ml G418 (Invitrogen) to maintain stable Nav1.6 expression. Cells were transfected at 80%–90% confluence with equal amount (1 μg each) of plasmid pairs using Lipofectamine 2000 (Invitrogen) according to manufacturer's instructions. HEK‐Nav1.6 cells were washed and replated at very low density prior to electrophysiological recordings (Ali et al., 2016, 2018; Scala et al., 2018; Wadsworth et al., 2019).
Twenty‐four hours after transfection, HEK293 cells were replated from the 24‐well plate using a 0.04% Trypsin:EDTA mixture dissolved in PBS. Suspended cells were centrifuged and seeded in white, clear‐bottom 96‐well tissue culture plates (Greiner Bio‐One) in 200 µl of medium. […] The bioluminescence reaction was initiated by dispensing 100 µl of D‐luciferin substrate (1.5 mg/ml dissolved in PBS) using a Synergy^TM H4 Multi‐Mode Micro plate Reader (Biotech, Winooski, VT). Luminescence readings were initiated after 3 s of mild plate shaking and performed at 2 min intervals for 20 min with integration times of 0.5 s. […]
To test the hypothesis that FLPK, PLEV and/or EYYV in cells could act as FGF14 inhibitors of the FGF14:Nav1.6 complex assembly, the complex was reconstituted using LCA (Ali et al., 2014, 2016; Hsu et al., 2015, 2017; Shavkunov et al., 2012,2013,2015; Wadsworth et al., 2019). HEK293 cells transfected with constructs expressing CLuc‐FGF14 and CD4‐Nav1.6 C‐tail‐NLuc in which luminescence is detected upon addition of the D‐luciferin substrate as a read‐out of protein binding (Figure 3). In‐cell binding of the reconstituted FGF14:Nav1.6 complex in the presence of vehicle (0.1% DMSO) is represented as summary bar graphs of percent maximal luminescence at 10–15 min of reaction time (Figure 3). […]

[1] = test system: FGF14^Y158N/V160N:Nav1.6 complex; test: LCA, CLuc-FGF14^Y158N/V160N; type: cell-based, human; conditions: 50 µM peptide, 12 hr, HEK293, vs DMSO

Compound | effect on FGF14:Nav1.6 complex formation (FGF14:Nav1.6 complex) | IC50 (FGF14:Nav1.6 complex; HEK293 cells, FLPK 1, 10, 25, 50, 75, 100, 150, 250 µM, luminescence normalized to DMSO, apparent IC50, read-out: IC50, inhibition of FGF14:Nav1.6 complex formation) | efficacy in reducing FGF14:Nav1.6 complex formation (FGF14:Nav1.6 complex; dose-response (Figure 3f), compared to control conditions) | effect on FGF14^Y158N/V160N:Nav1.6 complex formation [1]
CC(=O)N[C@@H](Cc1ccccc1)C(=O)N[C@@H](CC(C)C)C(=O)N1CCC[C@H]1C(=O)N[C@@H](CCCCN)C(N)=O [FLPK] (Ac-FLPK-NH2) | significant reduction of the FGF14:Nav1.6 complex formation; also recorded: weak inhibition | 58 µM | above 50% | abolished the effect of FLPK; also recorded: similarly abolished
PLEV [tetrapeptide previously designed from FGF14:FGF14 dimer interface; docked with N-terminal acetylation and C-terminal amidation] | significant reduction of the FGF14:Nav1.6 complex formation |  |  | increased the inhibition
EYYV [tetrapeptide previously designed from FGF14:FGF14 dimer interface; docked with N-terminal acetylation and C-terminal amidation] | significant reduction of the FGF14:Nav1.6 complex formation |  |  | 
